Reference: patent publication US11827628B2, “Compositions and methods for inhibition of the JAK pathway” (Rigel Pharmaceuticals, Inc., priority 2005, dated 2023)

Tested on: up-regulation of ICAM-1 (CD54) by IFNγ in U937 human monocytic cells
Assay: U937 IFNγ ICAM1 FACS Assay
Type: cell-based
Settings: U937 cells stimulated with IFNγ; ICAM-1 expression by FACS; read-out: IC50, Example 44
Procedure, shortened: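 Readout was the geometric-mean APC anti-ICAM-1 signal by FACS on live U937 monocytic cells, with % live cells also recorded. Cells were exposed to compounds (8 points, 3-fold dilutions, duplicates) for 30 min at 37 °C before 18–24 h of IFNγ stimulation. EC50 values were computed from the dose curve.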

Molecule | IC50 [nM]
Cc1cc(COc2ccc(Nc3nc(Nc4ccc(F)c(S(N)(=O)=O)c4)ncc3F)cc2)no1 [Compound I-233, N2-(3-Aminosulfonyl-4-fluorophenyl)-5-fluoro-N4-[4-(5-methylisoxazol-3-yl)methyleneoxyphenyl]-2,4-pyrimidinediamine] | 1750
N#CCc1ccc(Nc2nc(Nc3ccc(F)c(S(N)(=O)=O)c3)ncc2F)cc1 [III-10, N2-(3-Aminosulfonyl-4-fluoro)phenyl-N4-(4-cyanomethyl)phenyl-5-fluoro-2,4-pyrimidinediamine] | 3520
Cc1cc(COc2ccc(Nc3nc(Nc4ccc(C)c(S(N)(=O)=O)c4)ncc3F)cc2C)no1 [Compound I-234, N2-(3-Aminosulfonyl-4-methylphenyl)-5-fluoro-N4-[3-methyl-4-(5-methylisoxazol-3-yl)methyleneoxyphenyl]-2,4-pyrimidinediamine] | 2020
NS(=O)(=O)c1cccc(Nc2ncc(F)c(Nc3cccc(CNC(=O)C4CC4)c3)n2)c1 [III-39, N2-(3-aminosulfonyl)phenyl-N4-(3-cyclopropylcarbonylaminomethyl)phenyl-5-fluoro-2,4-pyrimidinediamine] | 1440
CNS(=O)(=O)c1cc(Nc2ncc(F)c(Nc3cccc(OCc4nc(C)no4)c3)n2)ccc1C [Compound I-255, 5-Fluoro-N2-[3-(N-methylaminosulfony)-4-methylphenyl]-N4-[3-(3-methyl-1,2,4-oxadiazol-5-yl)methyleneoxyphenyl]-2,4-pyrimidinediamine] | 5520
N2-(3-Aminocarbonyl-5-methylphenyl)-5-fluoro-N2-[4-(1-ethylpyrazol-5-yl)amidophenyl)-2,4-pyrimidinediamine [II-20] | 11500
Cc1cc(COc2ccc(Nc3nc(Nc4ccc(F)c(S(N)(=O)=O)c4)ncc3F)cc2C)no1 [Compound I-237, N2-(3-Aminosulfonyl-4-fluorophenyl)-5-fluoro-N4-[3methyl-4-(5-methylisoxazol-3-yl)methyleneoxyphenyl]-2,4-pyrimidinediamine] | 3580
Cc1nc(COc2ccc(Nc3nc(Nc4ccc(C)c(S(N)(=O)=O)c4)ncc3F)cc2)cs1 [Compound I-280, N2-(3-Aminosulfonyl-4-methylphenyl)-5-fluoro-N4-[4-(2-methylthiazol-4-yl)methyleneoxyphenyl]-2,4-pyrimidinediamine] | 1460
Cc1noc(COc2cccc(Nc3nc(Nc4cccc(S(N)(=O)=O)c4)ncc3F)c2)n1 [Compound I-252, N2-(3-Aminosulfonylphenyl)-5-fluoro-N4-[3-(3-methyl-1,2,4-oxadiazol-5-yl)methyleneoxyphenyl]-2,4-pyrimidinediamine] | 2470
Cc1nnc(COc2ccc(Nc3nc(Nc4ccc(F)c(S(N)(=O)=O)c4)ncc3F)cc2)o1 [Compound I-278, N2-(3-Aminosulfonyl-4-fluorophenyl)-5-fluoro-N4-[4-(5-methyl-1,3,4-oxadiazol-2-yl)methyleneoxyphenyl]-2,4-pyrimidinediamine] | 2270
N2-(3-Aminocarbonyl-5-methylphenyl)-5-fluoro-N2-[4-(1-methylpyrazol-5-yl)amidophenyl)-2,4-pyrimidinediamine [II-21] | 41700
COc1cc(Nc2ncc(F)c(Nc3ccc(CC#N)cc3)n2)ccc1S(N)(=O)=O [III-9, N2-(4-Aminosulfonyl-3-methoxy)phenyl-N4-(4-cyanomethyl)phenyl-5-fluoro-2,4-pyrimidinediamine] | 6980
COc1cc(Nc2ncc(F)c(Nc3cc(C)c(OCC#N)c(C)c3)n2)ccc1S(N)(=O)=O [Compound I-32, N2-(4-Aminosulfonyl-3-methoxy)phenyl-N4-(4-cyanomethoxy-3,5-dimethyl)phenyl-5-fluoro-2,4-pyrimidinediamine] | 1970
Cc1noc(COc2cccc(Nc3nc(Nc4ccc(C)c(S(N)(=O)=O)c4)ncc3F)c2)n1 [Compound I-254, N2-(3-Aminosulfonyl-4-methylphenyl)-5-fluoro-N4-[3-(3-methyl-1,2,4-oxadiazol-5-yl)methyleneoxyphenyl]-2,4-pyrimidinediamine] | 1820

These reach a lower IC50. Values come first.

IC50 [nM] | Molecule
1040 | Cc1cc(Nc2nc(Nc3ccc(C)c(S(N)(=O)=O)c3)ncc2F)ccc1OCC#N [Compound I-24, N2-(3-Aminosulfonyl-4-methyl)phenyl-N4-(4-cyanomethoxy-3-methyl)phenyl-5-fluoro-2,4-pyrimidinediamine]
985 | CNS(=O)(=O)c1cc(Nc2ncc(F)c(Nc3ccc(OCc4nc(C)no4)cc3)n2)ccc1C [Compound I-260, 5-Fluoro-N2-[3-N-(methyl)aminosulfonyl-4-methylphenyl)-N4-[4-(3-methyl-1,2,4-oxadiazol-5-yl)methyleneoxyphenyl]-2,4-pyrimidinediamine]
897 | N#CCOc1ccc(Nc2nc(Nc3ccc(F)c(S(N)(=O)=O)c3)ncc2F)cc1 [Compound I-33, N2-(3-Aminosulfonyl-4-fluoro)phenyl-N4-(4-cyanomethoxy)phenyl-5-fluoro-2,4-pyrimidinediamine]
822 | Cc1nc(COc2ccc(Nc3nc(Nc4cccc(S(N)(=O)=O)c4)ncc3F)cc2)no1 [Compound I-276, N2-(3-Aminosulfonyl)phenyl-5-fluoro-N4-[4-(5-methyl-1,2,4-oxadiazol-3-yl)methoxy]phenyl-2,4-pyrimidinediamine]
665 | CCN(CC)CCNS(=O)(=O)c1ccc(Nc2ncc(F)c(Nc3ccc(OCc4nc(C)no4)cc3)n2)cc1 [Compound I-263, N2-[4-(2-N,N-Diethylaminoethyl)aminosulfonylphenyl)-5-fluoro-N4-[4-(3-methyl-1,2,4-oxadiazol-5-yl)methyleneoxyphenyl]-2,4-pyrimidinediamine]
585 | N#CCCc1ccc(Nc2nc(Nc3cccc(S(N)(=O)=O)c3)ncc2F)cc1 [III-14, N2-(3-aminosulfonylphenyl)-N4-[4-(cyanoethylene)phenyl]-5-fluoro-2,4-pyrimidinediamine]
494 | Cc1cc(COc2ccc(Nc3nc(Nc4cc(C)c(F)c(S(N)(=O)=O)c4)ncc3F)cc2F)no1 [Compound I-224, N2-(3-Aminosulfonyl-4-fluoro-5-methylphenyl)-5-fluoro-N4-[3-fluoro-4-(5-methylisoxazol-3-yl)methyleneoxyphenyl]-2,4-pyrimidinediamine]
455 | Cc1cc(Nc2nc(Nc3cccc(S(N)(=O)=O)c3)ncc2F)ccc1OCC#N [Compound I-23, N2-(3-Aminosulfonyl)phenyl-N4-(4-cyanomethoxy-3-methyl)phenyl-5-fluoro-2,4-pyrimidinediamine]
424 | Cc1cc(Nc2nc(Nc3cccc(S(N)(=O)=O)c3)ncc2F)cc(C)c1OCC#N [Compound I-26, N2-(3-Aminosulfonyl)phenyl-N4-(4-cyanomethoxy-3,5-dimethyl)phenyl-5-fluoro-2,4-pyrimidinediamine]
339 | Cc1ccc(Nc2ncc(F)c(Nc3ccc(OCC#N)cc3)n2)cc1S(N)(=O)=O [Compound I-20, N2-(3-Aminosulfonyl-4-methyl)phenyl-N4-(4-cyanomethoxy)phenyl-5-fluoro-2,4-pyrimidinediamine]
219 | Cc1noc(COc2ccc(Nc3nc(Nc4ccc(S(N)(=O)=O)cc4)ncc3F)cc2)n1 [Compound I-268, N2-(4-Aminosulfonylphenyl)-5-fluoro-N4-(4-[3-methyl-1,2,4-oxadiazol-5-yl]methyleneoxyphenyl)-2,4-pyrimidinediamine]
